The values that follow come from patent US11634443B2, “Treprostinil prodrugs” (United Therapeutics Corporation, priority 2019, dated 2023).

Molecules are shown by their SMILES. Like-named read-outs stand apart in the source and are kept apart here.

The target of data set [1] is T1, prostaglandin D2 (PGD2) receptor 1 (DP1) (Homo sapiens, UniProt Q13258).
T1 construct: expressed in transfected cells; host or cells: HEK293T
T1 sequence (Q13258 1-359): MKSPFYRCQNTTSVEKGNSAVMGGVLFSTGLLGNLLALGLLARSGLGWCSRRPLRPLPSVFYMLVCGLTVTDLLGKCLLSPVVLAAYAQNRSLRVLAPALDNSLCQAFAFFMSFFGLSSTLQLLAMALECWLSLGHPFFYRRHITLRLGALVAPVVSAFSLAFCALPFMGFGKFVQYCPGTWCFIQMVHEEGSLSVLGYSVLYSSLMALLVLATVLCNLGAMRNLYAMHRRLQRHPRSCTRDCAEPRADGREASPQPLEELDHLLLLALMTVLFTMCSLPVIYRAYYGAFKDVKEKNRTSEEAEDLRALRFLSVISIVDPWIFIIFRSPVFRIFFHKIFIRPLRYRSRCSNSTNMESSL
The data set is described as follows: DP1 receptor cAMP assay (agonist mode). It is filed as cell-based. The note with it: Table 24; relative to treprostinil EC50 values; * partial agonists or ambiguous dose-response curves; image character = too high to realistically calculate.

Data set [2] in a line: Stability and formation of treprostinil in dog cryopreserved hepatocytes. The note with it: male, Beagle, dog, pH 7.4.
The nature of data set [3]: Stability and formation of treprostinil in human cryopreserved hepatocytes. The note with it: both, human, pH 7.4.
The conditions of data set [4]: male, Beagle, dog, 1 μM, pH 7.4.
Protocol: (§1) Mixed-gender human liver microsomes, male Sprague-Dawley rat liver microsomes, and male Beagle dog liver microsomes were purchased from XenoTech. The reaction mixture, minus NADPH, was prepared as described below. […] An aliquot of the reaction mixture (without cofactor) was equilibrated in a shaking water bath at 37° C. for 5 minutes. The reaction was initiated by the addition of cofactor, and the mixture was incubated in a shaking water bath at 37° C. Aliquots (200 μL) were withdrawn at 0, 10, 20, 30, and 60 minutes. Test article samples were immediately combined with 400 μL of ice-cold acetonitrile (ACN) to terminate the reaction. […] The samples were then mixed and centrifuged to precipitate proteins. Aliquots of the supernatant were removed, diluted 1:1 into distilled water containing internal standard, and analyzed by LC-MS/MS against calibration standards prepared in a matched matrix. All samples were analyzed for the dosed prodrugs as well as the drug, treprostinil. The test article concentration was compared to the concentration at time 0 to determine the percent of test article remaining at each time point. Half-lives and clearance were calculated using GraphPad software, fitting to a single-phase exponential decay equation.
Liver Microsomes 0.5 mg/mL
Potassium Phosphate, pH 7.4 100 mM
For data set [5] the following is noted: human, 1 μM.
Protocol: For each of the test articles, 495 μL of skin homogenate was added to triplicate centrifuge tubes. To each tube, 5 μL of a 100 μM solution of test article was added, for a final test article dosing concentration of 1 μM. The tubes were placed onto a Thermomixer and maintained at 37° C. with gentle shaking for the duration of the experiment. At each time point (0, 30, 60, and 120 minutes), a 100 μL aliquot was removed from each tube and combined with 200 μL of acetonitrile to stop the stability reaction. The tubes were mixed and centrifuged at 3000 rpm for 10 minutes. Aliquots of supernatant were removed and diluted 1:1 with distilled water containing internal standard (2 μM treprostinil-d4). Calibration standards for the treprostinil analysis were prepared for each test article in a surrogate matrix (supernatant from a mixture of 1:2 human plasma:acetonitrile), at concentrations ranging from 1 μM to 1 nM. Calibration standards were also diluted 1:1 with distilled water containing internal standard.
For data set [6], the target named is T2, prostaglandin I2 (PGI2) receptor (IP) (Homo sapiens, UniProt P43119).
T2 construct: expressed in transfected cells; host or cells: CHO-K1
The data set is described as follows: IP receptor cAMP assay (agonist mode). It is filed as cell-based. To be noted: Table 24; relative to treprostinil EC50 values; * partial agonists or ambiguous dose-response curves; image character = too high to realistically calculate.
Protocol: (§2) Gas Cyclic AMP (cAMP) Assay: In agonist mode testing, cells were seeded in a 384-well plate at an appropriate density and then were treated with compounds and incubated at 37° C. for 20 minutes. The reaction was terminated by sequentially adding sequentially adding trFluor™ Eu-labeled cAMP and trFluor™ 650-labeled anti-cAMP antibody in lysis buffer. […] All testing wells contained 0.1% DMSO in the final concentrations.
(§3) Data in graphs are represented in Mean±SD. Dose-dependent responses were fitted with sigmoidal dose-response curves allowing variable slopes using GraphPad Prism version 6 (Graphpad Prism).

Data set [7] can be described thus: Stability and formation of treprostinil in rat cryopreserved hepatocytes. The note with it: male, Sprague-Dawley, rat, pH 7.4.
A further data set has as its target T3, PGE2 receptor 1 (EP1) (Homo sapiens, UniProt P34995).
T3 construct: expressed in transfected cells; host or cells: HEK293T
T3 sequence (P34995 1-402): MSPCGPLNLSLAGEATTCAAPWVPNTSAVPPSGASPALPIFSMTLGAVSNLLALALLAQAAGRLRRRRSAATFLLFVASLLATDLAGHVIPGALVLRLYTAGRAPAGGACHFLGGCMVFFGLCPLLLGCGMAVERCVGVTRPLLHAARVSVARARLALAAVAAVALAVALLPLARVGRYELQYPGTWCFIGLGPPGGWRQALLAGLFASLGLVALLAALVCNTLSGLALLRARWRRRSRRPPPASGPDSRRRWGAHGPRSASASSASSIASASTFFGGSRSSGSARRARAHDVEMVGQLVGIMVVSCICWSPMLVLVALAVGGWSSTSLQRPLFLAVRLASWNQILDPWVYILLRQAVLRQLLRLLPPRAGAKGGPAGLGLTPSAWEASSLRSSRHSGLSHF
Briefly: EP1 receptor calcium assay (agonist mode). To be noted: Table 24; relative to treprostinil EC50 values; * partial agonists or ambiguous dose-response curves; image character = too high to realistically calculate. It is filed as cell-based. Here is the method: Assay Buffer: • EP1 Calcium and DP1 cAMP Assays: HBSS plus 20 mM HEPES • EP2 and IP1 cAMP Assays: 1 mM IBMX in HBSS plus 20 mM HEPES
Cells were thawed from frozen cells and resuspended in assay buffer at desired concentrations. cAMP or Calcium assays were performed according to the manufacturer's protocol using Multiscreen™ TR-FRET cAMP 1.0 No Wash Assay Kit or Multiscreen™ Calcium 1.0 No Wash Kit.
Calcium Assay: Cells were seeded in a 384-well plate at an appropriate density. The calcium assay was conducted according to the manufacturer's protocols (Multiscreen Calcium 1.0 No Wash Assay Kit). The calcium dye loading buffer was added to the cells and incubated for 1 hour at 37° C. For agonist mode, cells were injected with Iloprost control agonist or test compound by FLIPR and calcium mobilization was monitored for 180 seconds with compound injected into the wells at the 19th second. Fluorescent emissions were read at 525 nm with excitation at 490 nm in a FLIPR 384 instrument (Molecular Devices).
Calcium Assay: Calcium assay results are expressed as “RFU” as defined in figure below. Data are represented in Mean±SEM. Dose-response curves were fitted using “Sigmoidal dose-response (variable slope)” function in GraphPad Prism 6. EC50 values were calculated based on the fitted curves.
Prostaglandin receptor activity assessments with treprostinil and treprostinil analogues have been conducted, and a historical, positive control agonist for these receptors, iloprost (for IP, EP2 and EP1) or PGD2 (for DP1), was also included. These studies used cell lines overexpressing either human IP, EP2 or DP1, or EP1 receptors, and following incubation with varying concentrations of compounds, cAMP levels were measured using Fluorescence Resonance Energy Transfer (FRET). The 665/620 (acceptor/donor emission signals) ratio is inversely proportional to the concentration of cAMP.

For data set [8] the following is noted: male, Sprague-Dawley, rat, 1 μM, pH 7.4.
Protocol: as §1
Liver Microsomes 0.5 mg/mL
Potassium Phosphate, pH 7.4 100 mM
Data set [9] deals with T4, prostaglandin E2 (PGE2) receptor 2 (EP2) (Homo sapiens, UniProt P43116).
T4 construct: expressed in transfected cells; host or cells: HEK293T
Briefly: EP2 receptor cAMP assay (agonist mode). It is filed as cell-based. To be noted: Table 24; relative to treprostinil EC50 values; * partial agonists or ambiguous dose-response curves; image character = too high to realistically calculate.
Protocol: as §2, §3

For data set [10] the following is noted: both, human, 1 μM, pH 7.4.
Protocol: as §1
Liver Microsomes 0.5 mg/mL
Potassium Phosphate, pH 7.4 100 mM
Data set [11] can be described thus: Stability and formation of treprostinil in human liver microsomes. To be noted: both, pH 7.4. On the technique in general: Microsomes from liver hold many membrane-bound enzymes, among them those of drug oxidation.
Protocol: as §1
Liver Microsomes 0.5 mg/mL
Potassium Phosphate, pH 7.4 100 mM
Data set [12] can be described thus: Stability and formation of treprostinil in dog liver microsomes. The note with it: male, Beagle, pH 7.4.
Protocol: as §1
Liver Microsomes 0.5 mg/mL
Potassium Phosphate, pH 7.4 100 mM
Data set [13] can be described thus: Stability and formation of treprostinil in rat liver microsomes. The note with it: male, Sprague-Dawley, pH 7.4.
Protocol: as §1
Liver Microsomes 0.5 mg/mL
Potassium Phosphate, pH 7.4 100 mM
The conditions of data set [14]: cited from earlier work.

T4 sequence (P43116 whole entry): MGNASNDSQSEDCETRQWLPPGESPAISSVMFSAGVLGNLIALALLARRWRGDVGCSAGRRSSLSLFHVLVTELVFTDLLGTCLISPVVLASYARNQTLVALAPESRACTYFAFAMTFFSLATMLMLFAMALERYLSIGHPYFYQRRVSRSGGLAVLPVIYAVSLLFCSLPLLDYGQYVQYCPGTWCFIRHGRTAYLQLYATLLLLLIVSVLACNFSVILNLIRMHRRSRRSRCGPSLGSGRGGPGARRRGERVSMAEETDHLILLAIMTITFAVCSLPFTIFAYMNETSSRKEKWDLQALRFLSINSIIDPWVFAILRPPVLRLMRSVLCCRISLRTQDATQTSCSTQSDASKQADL
T2 sequence (P43119 whole entry): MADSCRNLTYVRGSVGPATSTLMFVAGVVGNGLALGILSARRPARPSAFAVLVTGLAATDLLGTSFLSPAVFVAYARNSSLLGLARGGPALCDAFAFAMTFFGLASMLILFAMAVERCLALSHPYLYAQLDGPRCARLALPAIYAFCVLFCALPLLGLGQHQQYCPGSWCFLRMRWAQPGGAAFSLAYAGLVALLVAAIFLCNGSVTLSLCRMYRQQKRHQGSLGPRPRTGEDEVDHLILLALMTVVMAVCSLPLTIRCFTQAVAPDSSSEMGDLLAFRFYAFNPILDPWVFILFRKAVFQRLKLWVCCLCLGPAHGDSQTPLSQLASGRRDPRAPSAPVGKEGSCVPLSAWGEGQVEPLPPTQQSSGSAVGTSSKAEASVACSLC

With `CCCCC[C@@H](CC[C@@H]1[C@H]2Cc3cccc(OCC(=O)O)c3C[C@H]2C[C@H]1O)OC(C)=O` [Prodrug XLIII, 2-(((1R,2R,3aS,9aS)-1-((S)-3-acetoxyoctyl)-2-hydroxy-2,3,3a,4,9,9a-hexahydro-1H-cyclopenta[b]naphthalen-5-yl)oxy)acetic acid], the “Activity, DP1 Relative to Tre” value in data set [1] is 272x. In addition, the “Treprostinil Concentration, 0 min” value turned out to be 0.0381 µM in data set [2] (0 min, 1 μM); 0.00744 µM in data set [3] (0 min, 1 μM); 0.964 µM in data set [4] (0 min); 0.0034 µM in data set [5] (0 min); 0.00292 µM in data set [7] (0 min, 1 μM); 0.035 µM in data set [8] (0 min). For the same compound, in data set [10] (0 min), the “Treprostinil Concentration, 0 min” value worked out at 0.883 µM. The “Treprostinil Concentration, 15 min” value in data set [2] (15 min, 1 μM) stood at 0.628 µM; in [3] (15 min, 1 μM), 0.573 µM; in [4] (15 min), 0.917 µM; in [7] (15 min, 1 μM), 0.161 µM; in [8] (15 min) it was 0.0741 µM; in data set [10] (15 min), 0.681 µM. For the same compound, the “Treprostinil Concentration, 30 min” value in [2] (30 min, 1 μM) came out at 0.543 µM; in data set [3] (30 min, 1 μM), 0.623 µM; in [4] (30 min) it was 0.899 µM; in [5] (30 min), 0.382 µM; in data set [7] (30 min, 1 μM), 0.266 µM; in data set [8] (30 min), 0.111 µM. In addition, the “Treprostinil Concentration, 30 min” value in [10] (30 min) was 0.602 µM. Further, the “Treprostinil Concentration, 60 min” value is 0.446 µM in data set [2] (60 min, 1 μM); 0.54 µM in data set [3] (60 min, 1 μM); 0.932 µM in data set [4] (60 min); 0.583 µM in data set [5] (60 min); 0.397 µM in [7] (60 min, 1 μM); 0.145 µM in data set [8] (60 min). Also, the “Treprostinil Concentration, 60 min” value in [10] (60 min) is 0.513 µM. Also, the “Treprostinil Concentration, 120 min” value in data set [2] (120 min, 1 μM) turned out to be 0.4 µM; in data set [3] (120 min, 1 μM) it was 0.507 µM; in [4] (120 min), 0.873 µM; in [5] (120 min) it was 0.839 µM; in [7] (120 min, 1 μM) it was 0.503 µM; in [8] (120 min), 0.206 µM. The “Treprostinil Concentration, 120 min” value in [10] (120 min) is 0.341 µM. In addition, in data set [6], the “Activity, IP Relative to Tre” value is reported as 632x. The “Activity, EP1 Relative to Tre” value on PGE2 receptor 1 (EP1) is reported as 20x*. In addition, in data set [9], the “Activity, EP2 Relative to Tre” value is reported as 461x.

On to `C[C@]12CC[C@H]3[C@@H](CCC4=CC(=O)CC[C@@]43C)[C@@H]1CC[C@@H]2O` [Testosterone, testosterone], for which, in [2] (hepatocytes), the half-life at 1 μM is 6.5 min. For the same compound, the hepatocyte CLint at 1 μM was found to be 95.9 µL/min/1e6 cells in [3] (hepatocytes) and 448 µL/min/1e6 cells in data set [7] (hepatocytes). Further, the Half-Life was 29.2 min in data set [11], 37.7 min in [12] and 1.71 min in data set [13]. The microsomal CLint turned out to be 47.5 µL/min/mg in data set [11], 36.8 µL/min/mg in data set [12] and 809 µL/min/mg in [13].

As to `CCCCC[C@H](O)CC[C@@H]1[C@H]2Cc3cccc(OCC(=O)O)c3C[C@H]2C[C@H]1O` [treprostinil, Treprostinil], the First-pass effect result in data set [14] (oral delivery, animal studies) is “approximately 60%”. Also, in [14] (regardless of the route of administration), the Half-life once absorbed entry is “about 1 hour”.
